Assay results from patent US8541410B2, “Sulfur substituted sulfonylaminocarboxylic acid N-arylamides, their preparation, their use and pharmaceutical preparations comprising them” (Sanofi-aventis Deutschland GmbH, priority 1998, dated 2013).

Target: T1, soluble guanylate cyclase (sGC) (Bos taurus, UniProt P16068)
T1 construct: The sGC which was employed had been isolated from bovine lung; from tissue; host or cells: bovine lung
T1 sequence (P16068 1-619): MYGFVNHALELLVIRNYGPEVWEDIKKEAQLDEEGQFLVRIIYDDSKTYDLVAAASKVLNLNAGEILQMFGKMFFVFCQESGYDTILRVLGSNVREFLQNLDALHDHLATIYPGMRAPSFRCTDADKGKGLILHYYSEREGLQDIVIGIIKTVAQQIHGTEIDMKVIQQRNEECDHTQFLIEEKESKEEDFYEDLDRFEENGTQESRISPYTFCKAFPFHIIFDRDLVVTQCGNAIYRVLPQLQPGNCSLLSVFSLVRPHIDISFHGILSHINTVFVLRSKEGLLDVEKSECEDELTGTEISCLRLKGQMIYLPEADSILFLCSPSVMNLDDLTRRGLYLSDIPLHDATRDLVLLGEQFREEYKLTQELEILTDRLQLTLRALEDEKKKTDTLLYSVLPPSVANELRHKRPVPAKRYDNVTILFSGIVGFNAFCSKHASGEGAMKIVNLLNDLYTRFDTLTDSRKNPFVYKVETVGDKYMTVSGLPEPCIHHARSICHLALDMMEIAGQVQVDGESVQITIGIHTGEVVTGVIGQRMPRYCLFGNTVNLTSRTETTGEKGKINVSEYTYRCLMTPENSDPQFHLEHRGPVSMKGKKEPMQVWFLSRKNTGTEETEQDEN
T1 sequence (P19687 1-691 partner): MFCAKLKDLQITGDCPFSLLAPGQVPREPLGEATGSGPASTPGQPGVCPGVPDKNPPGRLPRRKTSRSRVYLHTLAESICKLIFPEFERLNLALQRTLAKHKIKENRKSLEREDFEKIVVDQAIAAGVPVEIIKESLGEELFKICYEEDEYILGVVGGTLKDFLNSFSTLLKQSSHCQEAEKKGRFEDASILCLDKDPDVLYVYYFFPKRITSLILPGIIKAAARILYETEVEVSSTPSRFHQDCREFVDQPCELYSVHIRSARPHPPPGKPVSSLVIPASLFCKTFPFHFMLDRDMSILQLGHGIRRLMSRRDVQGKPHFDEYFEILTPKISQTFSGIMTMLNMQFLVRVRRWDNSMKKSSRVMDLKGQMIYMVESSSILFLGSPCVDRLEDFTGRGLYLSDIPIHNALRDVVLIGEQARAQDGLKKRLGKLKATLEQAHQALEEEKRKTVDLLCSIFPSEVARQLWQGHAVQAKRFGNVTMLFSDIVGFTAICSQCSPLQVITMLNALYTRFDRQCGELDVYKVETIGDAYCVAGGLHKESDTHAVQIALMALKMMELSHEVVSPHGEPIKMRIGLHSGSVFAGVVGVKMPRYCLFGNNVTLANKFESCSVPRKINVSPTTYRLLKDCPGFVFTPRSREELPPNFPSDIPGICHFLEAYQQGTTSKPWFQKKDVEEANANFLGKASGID
Assay: Activation of the soluble guanylate cyclase (cGMP enzyme immunoassay)
Format: biochemical, bovine
Conditions: n-fold stimulation of basal enzyme activity
Protocol: The activation of the soluble guanylate cyclase (sGC) which catalyzes the conversion of guanosine triphosphate (GTP) into cyclic guanosine monophosphate (cGMP) and pyrophosphate, by the compounds according to the invention was quantified with the aid of an enzyme immunoassay (EIA) from Amersham. For this purpose the substances to be tested were initially incubated with sGC in microtiter plates, and the amount of the cGMP formed was then determined.
The sGC which was employed had been isolated from bovine lung (see Methods in Enzymology, Volume 195, p. 377). The test solutions (100 μl per well) contained 50 mM triethanolamine (TEA) buffer (pH 7.5), 3 mM MgCl2, 3 mM reduced glutathione (GSH), 0.1 mM GTP, 1 mM 3-isobutyl-1-methylxanthine (IBMX), suitably diluted enzyme solution and the substance to be tested or, in the control experiments, the solvent. The substances to be tested were dissolved in dimethyl sulfoxide (DMSO) and the solution was diluted with DMSO/water, so that the final concentration (c) of the substance to be tested in the test solution had the value indicated in the table. The DMSO concentration in the test solution was 5% (v/v). The reaction was initiated by addition of the sGC. The reaction mixture was incubated at 37° C. for 15 to 20 minutes and then stopped by ice-cooling and addition of the stop reagent (50 mM EDTA, pH 8.0). An aliquot of 50 μl was taken and used for determining the cGMP content using the acetylation protocol of the Amersham cGMP-EIA kit. The absorption of the samples was measured at 450 nm (reference wavelength 620 nm) in a microtiter plate reader. The cGMP concentration was determined using a standard curve which was obtained under the same test conditions. The activation of sGC by a test substance is given as the n-fold stimulation of the basal enzyme activity which was found in the control experiments (using solvent instead of test substance) (calculated using the formula n-fold stimulation=[cGMP]test substance/[cGMP]control).

Row | n-fold stimulation (concentration c 50 μM) | Structure (SMILES) | also measured
1 | 9.9 | O=C(Nc1ccc(S(=O)(=O)N2CCOCC2)cc1)c1cc(Cl)ccc1NS(=O)(=O)c1cccnc1 [Example 132, 5-Chloro-N-(4-(morpholine-4-sulfonyl)-phenyl)-2-(pyridine-3-sulfonylamino)-benzamide] | –
2 | 7.2 | CCS(=O)(=O)Nc1ccc(Cl)cc1C(=O)Nc1ccc(S(=O)(=O)N2CCOCC2)cc1 [Example 134, 5-Chloro-2-(ethylsulfonylamino)-N-(4-(morpholine-4-sulfonyl)-phenyl)-benzamide] | –
3 | 24.2 | O=C(Nc1ccc(S(=O)(=O)N2CCOCC2)cc1)c1cc(Cl)ccc1NS(=O)(=O)c1cccs1 [Example 136, 5-Chloro-N-(4-(morpholine-4-sulfonyl)-phenyl)-2-(thiophene-2-sulfonylamino)-benzamide] | –
4 | 4.6 | O=C(Nc1ccc(S(=O)(=O)N2CCOCC2)cc1)c1cc(Cl)ccc1NS(=O)(=O)c1ccc(C(F)(F)F)cc1 [Example 137, 5-Chtoro-N-(4-(morpholine-4-sulfonyl)-phenyl)-2-(4-trifluoromethyl-phenylsulfonylamino)-benzamide] | –
5 | 21.9 | O=C(Nc1ccc(S(=O)(=O)N2CCOCC2)cc1)c1cc(Cl)ccc1NS(=O)(=O)c1cc(C(F)(F)F)cc(C(F)(F)F)c1 [Example 139, 2-(3,5-Bis-trifluoromethyl-phenylsulfonylamino)-5-chloro-N-(4-(morpholine-4-sulfonyl)-phenyl)-benzamide] | –
6 | 8 | O=C(Nc1ccc(S(=O)(=O)N2CCOCC2)cc1)c1cc(Cl)ccc1NS(=O)(=O)c1cc(Br)c(Br)s1 [Example 145, 5-Chloro-2-(4,5-dibromo-thiophene-2-sulfonylamino)-N-(4-(morpholine-4-sulfonyl)-phenyl)-benzamide] | –
7 | 10.2 | O=C(Nc1ccc(S(=O)(=O)N2CCOCC2)cc1)c1cc(Cl)ccc1NS(=O)(=O)c1ccc(F)cc1 [Example 146, 5-Chloro-2-(4-fluoro-phenylsulfonylamino)-N-(4-(morpholine-4-sulfonyl)-phenyl)-benzamide] | –
8 | 15.5 | COc1ccc(S(=O)(=O)Nc2ccc(Cl)cc2C(=O)Nc2ccc(S(=O)(=O)N3CCOCC3)cc2)cc1Cl [Example 148, 5-Chloro-2-(3-chloro-4-methoxy-phenylsulfonylamino)-N-(4-(morpholine-4-sulfonyl)-phenyl)-benzamide] | –
9 | 15.3 | Cc1cc(C)c(S(=O)(=O)Nc2ccc(Cl)cc2C(=O)Nc2ccc(S(=O)(=O)N3CCOCC3)cc2)c(C)c1 [Example 150, 5-Chloro-N-(4-(morpholine-4-sulfonyl)-phenyl)-2-(2,4,6-trimethyl-phenylsulfonylamino)-benzamide] | –
10 | 19.9 | O=C(Nc1ccc(S(=O)(=O)N2CCOCC2)cc1)c1cc(Cl)ccc1NS(=O)(=O)c1cccc([N+](=O)[O-])c1 [Example 151, 5-Chloro-N-(4-(morpholine-4-sulfonyl)-phenyl)-2-(3-nitro-phenylsulfonylamino)-benzamide] | –
11 | 7.8 | O=C(Nc1ccc(S(=O)(=O)N2CCOCC2)cc1)c1cc(Cl)ccc1NS(=O)(=O)CC(F)(F)F [Example 155, 5-Chloro-N-(4-(morpholine-4-sulfonyl)-phenyl)-2-(2,2,2-trifluoro-ethylsulfonylamino)-benzamide] | –
12 | 7.8 | CCCCS(=O)(=O)Nc1ccc(Cl)cc1C(=O)Nc1ccc(S(=O)(=O)N2CCOCC2)cc1 [Example 156, 2-(Butyl-sulfonylamino)-5-chloro-N-(4-(morpholine-4-sulfonyl)-phenyl)-benzamide] | –
13 | 4.6 | O=C(Nc1ccc(S(=O)(=O)N2CCOCC2)cc1)c1cc(Cl)ccc1NS(=O)(=O)c1cccc(C(F)(F)F)c1 [Example 157, 5-Chloro-N-(4-(morpholine-4-sulfonyl)-phenyl)-2-(3-trifluoromethyl-phenylsulfonylamino)-benzamide] | –
14 | 21.1 | COc1cc(NS(=O)(=O)c2ccc(Cl)cc2)c(C(=O)Nc2ccc(S(=O)(=O)N3CCS(=O)(=O)CC3)cc2)cc1OC [Example 175, 2-(4-Chloro-phenylsulfonylamino)-4,5-dimethoxy-N-(4-(1,1-dioxo-thiomorpholine-4-sulfonyl)-phenyl)-benzamide] | –
15 | 13.9 | COc1cc(NS(=O)(=O)c2ccc(Cl)cc2)c(C(=O)Nc2ccc(S(=O)(=O)N3CC[S+]([O-])CC3)cc2)cc1OC [Example 176, 2-(4-Chloro-phenylsulfonylamino)-4,5-dimethoxy-N-(4-(1-oxo-thiomorpholine-4-sulfonyl)-phenyl)-benzamide] | –
16 | – | COc1cc(NS(=O)(=O)c2ccc(Cl)s2)c(C(=O)Nc2ccc(S(=O)(=O)N(C)Cc3cccnc3)cc2)cc1OC.Cl [Example 191, 4,5-Dimethoxy-2-(5-chloro-thiophene-2-sulfonylamino)-N-(4-(N-methyl-N-(pyridin-3-yl-methyl)=aminosulfonyl)-phenyl)-benzamide hydrochloride] | n-fold stimulation (concentration c 10 μM): 27.5
17 | – | Cc1cc(NC(=O)c2cc(Cl)ccc2NS(=O)(=O)c2ccc(Cl)cc2)ccc1S(=O)(=O)N1CCOCC1 [Example 192, 5-Chloro-2-(4-chloro-phenylsulfonylamino)-N-(4-(morpholine-4-sulfonyl)-3-methyl-phenyl)-benzamide] | n-fold stimulation (concentration c 10 μM): 26.7
18 | – | Cc1cc(NC(=O)c2cc(Cl)ccc2NS(=O)(=O)c2ccc(Cl)cc2)ccc1S(=O)(=O)N1C[C@@H](C)O[C@@H](C)C1 [Example 193, 5-Chloro-2-(4-chloro-phenylsulfonylamino)-N-(4-(cis-2,6-dimethyl-morpholine-4-sulfonyl)-3-methyl-phenyl)-benzamide] | n-fold stimulation (concentration c 10 μM): 31.1
19 | – | Cc1cc(NC(=O)c2cc(Cl)ccc2NS(=O)(=O)c2ccc(Cl)cc2)ccc1S(=O)(=O)N1CC(C)CC(C)C1 (stereo not drawn) [Example 194, 5-Chloro-2-(4-chloro-phenylsulfonylamino)-N-(4-(3,5-dimethyl-piperidine-1-sulfonyl)-3-methyl-phenyl)-benzamide] | n-fold stimulation (concentration c 5 μM): 20.0
20 | – | Cc1cc(NC(=O)c2cc(Cl)ccc2NS(=O)(=O)c2ccc(Cl)cc2)ccc1S(=O)(=O)N1CCCCC1 [Example 195, 5-Chloro-2-(4-chloro-phenylsulfonylamino)-N-(4-(piperidine-1-sulfonyl)-3-methyl-phenyl)-benzamide] | n-fold stimulation (concentration c 10 μM): 16.2
21 | – | COc1cc(NS(=O)(=O)c2c(C)noc2C)c(C(=O)Nc2ccc(S(=O)(=O)N(C)Cc3cccnc3)cc2)cc1OC [Example 196, 4,5-Dimethoxy-2-(3,5-dimethyl-isoxazole-4-sulfonylamino)-N-(4-(N-methyl-N-(pyridin-3-yl-methyl)-aminosulfonyl)-phenyl)-benzamide] | n-fold stimulation (concentration c 10 μM): 21.9
